We go through 25 compounds from patent US8288379B2, “Thia-triaza-cyclopentazulenes” (Boehringer Ingelheim International GmbH, priority 2009, dated 2012).

The structures appear in SMILES notation.

Usually IC50 stands for the concentration that gives 50% inhibition. Higher therefore signals a need for much substance. Broadly, the EC50 is the concentration needed to bring the measured effect to its halfway point.

For the first experiment, the target named is T1, FRAP1 (mTOR) kinase (Homo sapiens, UniProt P42345).
T1 construct: purchased Invitrogen PV4753
T1 sequence (P42345 1360-2549 limits assumed): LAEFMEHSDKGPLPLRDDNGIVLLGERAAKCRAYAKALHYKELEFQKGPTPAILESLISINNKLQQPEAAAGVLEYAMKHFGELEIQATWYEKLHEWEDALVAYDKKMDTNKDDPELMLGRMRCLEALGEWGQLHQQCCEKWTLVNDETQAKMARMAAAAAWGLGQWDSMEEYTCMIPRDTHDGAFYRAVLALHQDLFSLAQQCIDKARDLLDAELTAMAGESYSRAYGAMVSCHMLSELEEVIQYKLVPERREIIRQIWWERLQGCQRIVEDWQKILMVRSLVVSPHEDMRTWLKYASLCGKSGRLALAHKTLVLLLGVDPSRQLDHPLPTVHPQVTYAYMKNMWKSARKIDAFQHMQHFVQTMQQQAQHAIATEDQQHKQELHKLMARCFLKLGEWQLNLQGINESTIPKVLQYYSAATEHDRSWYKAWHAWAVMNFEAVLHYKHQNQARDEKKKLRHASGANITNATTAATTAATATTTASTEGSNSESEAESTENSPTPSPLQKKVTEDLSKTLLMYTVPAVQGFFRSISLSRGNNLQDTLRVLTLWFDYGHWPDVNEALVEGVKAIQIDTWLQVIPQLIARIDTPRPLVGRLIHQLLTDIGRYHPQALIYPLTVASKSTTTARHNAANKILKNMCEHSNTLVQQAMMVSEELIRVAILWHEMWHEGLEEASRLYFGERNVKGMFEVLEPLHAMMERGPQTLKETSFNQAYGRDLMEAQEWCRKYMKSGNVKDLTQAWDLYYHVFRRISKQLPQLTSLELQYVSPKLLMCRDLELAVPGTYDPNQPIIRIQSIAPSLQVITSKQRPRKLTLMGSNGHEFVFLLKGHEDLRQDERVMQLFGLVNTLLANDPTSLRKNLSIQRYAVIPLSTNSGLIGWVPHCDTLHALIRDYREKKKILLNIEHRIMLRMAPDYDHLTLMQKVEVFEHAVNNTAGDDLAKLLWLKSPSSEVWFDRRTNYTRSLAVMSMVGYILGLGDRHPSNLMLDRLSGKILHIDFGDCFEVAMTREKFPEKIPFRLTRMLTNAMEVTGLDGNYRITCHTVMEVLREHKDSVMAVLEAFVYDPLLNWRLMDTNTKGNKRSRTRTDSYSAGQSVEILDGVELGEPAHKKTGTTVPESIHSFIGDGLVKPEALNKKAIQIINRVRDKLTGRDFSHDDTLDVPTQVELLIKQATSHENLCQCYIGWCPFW
Put plainly: Inhibition of mTOR-induced p-4E-BP1 phosphorylation (TR-FRET mTOR Activity Kit; Invitrogen). The class given is biochemical. Particulars: 400 nM GFP-4E-BP1 substrate, ~150 ng/mL mTOR, one hour at room temperature. An excerpt:
Inhibition of mTOR-Induced p-4E-BP1 Phosphorylation (TR-FRET mTOR Activity Kit; Invitrogen)
• GFP-4E-BP1 substrate; Invitrogen order no. PV4759 • Lanthascreen Tb-anti-p4E-BP1 (pThr46) Antibody Kit; Invitrogen order no. PV4758 • FRAP1 (mTOR) kinase; Invitrogen order no. […] Preparation of Reagents: Note: Thaw and keep mTOR, the substrate, ATP, and the antibody on ice prior to making working dilutions. Working dilutions of these components can be kept at room temperature for short periods of time the day of use. 1. Add 2 ml of 5× Assay Buffer to 8 ml water to prepare 10 ml of 1× Assay Buffer. Note: The concentration of 1× Assay Buffer is 50 mM HEPES pH 7.5, 0.01% Polysorbate 20, 1 mM EGTA, and 10 mM MnCl2. 2. Prepare Antibody/EDTA Solution by first adding 2.75 n1 of Tb-anti p4E-BP1 Antibody to 2397 n1 of LanthaScreen™ TR-FRET Dilution Buffer. Then, add 100 n1 of 0.5 M EDTA. 3. Prepare 4× Substrate/Enzyme Solution by first adding 72 n1 of GFP-4E-BP1 (22 nM) to 926 n1 of 1× Assay Buffer. Then, add 1.6 n1 of mTOR (0.45 mg/mL). 4. Prepare ATP Solution by adding 3.2 n1 of 10 mM ATP to 1997 n1 of 1× Assay Buffer. Serial Dilution of Inhibitors (16 Point Curve): Note: It is recommended that inhibitors be serially diluted in DMSO, then diluted to a 4× working concentration with 1× Assay Buffer. The below procedure describes dilution of compounds in a 96-well format prior to transfer to a 384-well format for kinase assays. This procedure calls for dilution of the compounds in 2 adjacent columns of a 96-well plate, which upon transfer to a single column of a 384-well plate with an 8-channel pipette will align the samples in order of concentration. 1. Dispense 40 n1 of DMSO to two adjacent columns of a 96 well plate per compound (e.g. columns 1 and 2). 2. Add 10 n1 of inhibitor stock (10 mM) to the first well of the first column (A1) and mix. 3. Remove 10 n1 from A1 and transfer to the adjacent well in the next column (B1) and mix. 4. Remove 10 n1 from B1 and transfer to the next well in the first column (B2) and mix. 5. Repeat this dilution pattern through well H1 and leave the last well (H2) as DMSO only. 6. Remove 4 n1 of diluted compounds and add to 96 n1 of 1× Assay Buffer in a 96-well plate making 4× compound dilutions. Kinase Reaction: 1. Add 2.5 μl of 4× compound dilutions from the first column of the 96-well plate to every other well of column 1 of a 384-well plate with an 8-channel pipette. Repeat for columns 2 and 3. 2. Add 2.5 n1 of 4× compound dilutions from the second column of the 96-well plate to the empty wells of column 1 of the 384-well plate with an 8-channel pipette. Repeat for columns 2 and 3. Note: This procedure aligns the compound dilutions in order of concentration. 3. Add 2.5 n1 of 4× Enzyme/Substrate Solution to all columns 1-6. 4. Preincubate for 30 min. at RT (shaker). 5. Add 5 n1 of ATP Solution to all wells to start reactions. 6. Shake the assay plate on a plate shaker for 30 seconds. 7. Incubate the assay plate for one hour at room temperature (20-25° C.). Stop Step and Fluorescence Detection: 1. Add 10 n1 of Antibody/EDTA Solution to each well in columns 1-9. 2. Shake the assay plate on a plate shaker for 30 seconds. 3. Incubate the assay plate for one hour at room temperature (20-25° C.). 4. Measure the GFP (FRET) and terbium (reference) emission signals on a fluorescence plate reader (e.g. Perkin Elmer Envision). Data Analysis: 1. Calculate the emission ratio for each sample by dividing the GFP (FRET) signal by the terbium (reference) signal. 2. Plot the concentration of each compound versus the emission ratio. Determine the concentration of compound required to reach 50% of the maximum signal (IC50). Determination of IC50 values can be obtained by curve fitting (sigmoidal dose response, variable slope) using Prism software from GraphPad). Inhibition of Proliferation: CyQuant PC-3 Description: […]
On the technique in general: In TR-FRET formats the signal depends on donor and acceptor labels being close together.
`CCNc1ccc(-c2nn(C(C)C)c3c2CCCc2nc(NC(C)=O)sc2-3)cn1` [Example B-01, N-[3-(6-Ethylamino-pyridin-3-yl)-1-isopropyl-1,4,5,6-tetrahydro-9-thia-1,2,7-triaza-cyclopenta[e]azulen-8-yl]-acetamide] displayed an IC50 of 151 nM.
Same read-out and setting: as for `CNc1ccc(-c2nn(CCOC)c3c2CCCc2nc(NC(C)=O)sc2-3)cn1` [Example B-03, N-[1-(2-Methoxy-ethyl)-3-(6-methylamino-pyridin-3-yl)-1,4,5,6-tetrahydro-9-thia-1,2,7-triaza-cyclopenta[e]azulen-8-yl]-acetamide], the figure is 87 nM.
On the same count and under the same terms, with `CNC(=O)Nc1nc2c(s1)-c1c(c(-c3ccc(NC)nc3)nn1C(C)C)CCC2` [Example B-144, 1-[1-Isopropyl-3-(6-methylamino-pyridin-3-yl)-1,4,5,6-tetrahydro-9-thia-1,2,7-triaza-cyclopent[e]azulen-8-yl]-3-methyl-urea] the figure was 113 nM.
In the case of `CCNc1ccc(-c2nn(-c3ccccc3C)c3c2CCCc2nc(N)sc2-3)cn1` [Example C-03], the IC50 worked out at 3340 nM.
For `CCNc1ccc(-c2nn(-c3ccncc3C)c3c2CCCc2nc(N)sc2-3)cn1` [Example C-07], the half-inhibitory concentration (IC50) was determined as 2190 nM.
In the case of `CC(C)n1ncc2c1-c1scnc1CCC2` [Example C-08, 1-Isopropyl-1,4,5,6-tetrahydro-9-thia-1,2,7-triaza-cyclopent[e]azulene], half-maximal inhibition (IC50) required 2440 nM.
As for `Cc1ccc(-c2nn(-c3ccccc3C)c3c2CCCc2nc(NC(N)=O)sc2-3)cn1` [Example D-04], the IC50 stood at 402 nM.
The same measure, in the same setting: with `CNC(=O)Nc1nc2c(s1)-c1c(c(-c3ccc(C)nc3)nn1-c1ccccc1C)CCC2` [Example D-05] the figure was 358 nM; with `COCCNC(=O)Nc1nc2c(s1)-c1c(c(-c3ccc(C)nc3)nn1-c1ccccc1C)CCC2` [Example D-06], 1600 nM; with `Cc1ccc(-c2nn(-c3ccccc3C)c3c2CCCc2nc(NC(=O)NCCN(C)C)sc2-3)cn1` [Example D-07], 1280 nM.
Still for that read-out and setting: with `CNC(=O)c1nn(C(C)C)c2c1CCCc1nc(NC(C)=O)sc1-2` [Example E-01] the figure was 5180 nM; with `CC(=O)Nc1nc2c(s1)-c1c(c(C(=O)N(C)C)nn1C(C)C)CCC2` [Example E-02], 16000 nM; with `CC(=O)Nc1nc2c(s1)-c1c(c(C(=O)N(C)CCN(C)C)nn1C(C)C)CCC2` [Example E-03], 4850 nM.
As to `CC(=O)Nc1nc2c(s1)-c1c(c(C(=O)NCCO)nn1C(C)C)CCC2` [Example E-04], the concentration for half-maximal inhibition (IC50) came to 4890 nM. The IC50 values of the last two compounds are within 1.5-fold of each other.
`CC(=O)Nc1nc2c(s1)-c1c(c(C(=O)N(C)CCO)nn1C(C)C)CCC2` [Example E-05] displayed an IC50 not below 20000 nM.
On the same count and under the same terms, with `CC(=O)Nc1nc2c(s1)-c1c(c(C(=O)NCCCO)nn1C(C)C)CCC2` [Example E-06] the figure was 18000 nM; with `COCCNC(=O)c1nn(C(C)C)c2c1CCCc1nc(NC(C)=O)sc1-2` [Example E-07], 11400 nM.
Same read-out and setting: with `COCCN(C)C(=O)c1nn(C(C)C)c2c1CCCc1nc(NC(C)=O)sc1-2` [Example E-08] the figure was not below 20000 nM; with `CC(=O)Nc1nc2c(s1)-c1c(c(C(=O)Nc3ccccc3)nn1C(C)C)CCC2` [Example E-09], 8450 nM; with `CC(=O)Nc1nc2c(s1)-c1c(c(C(=O)Nc3cc[nH]n3)nn1C(C)C)CCC2` [Example E-10], 1580 nM.
On to `COC(=O)CCNC(=O)c1nn(C(C)C)c2c1CCCc1nc(NC(C)=O)sc1-2` [Example E-11], for which the IC50 worked out at 6260 nM.
Consider `CCOC(=O)CCCNC(=O)c1nn(C(C)C)c2c1CCCc1nc(NC(C)=O)sc1-2` [Example E-12], for which it took 5410 nM to reach half-maximal inhibition (IC50).
Take `COCC(=O)Nc1nc2c(s1)-c1c(c(-c3ccc(C)nc3)nn1-c1ccccc1C)CCC2` [Example E-13]: the IC50 worked out at 524 nM.
Same read-out and setting: as for `COCCC(=O)Nc1nc2c(s1)-c1c(c(-c3ccc(C)nc3)nn1-c1ccccc1C)CCC2` [Example E-14], the figure is 698 nM.
On the same count and under the same terms, as for `Cn1ncc2c1-c1sc(-c3cccnc3)nc1CCC2` [Example G-02], the figure is not below 20000 nM.

Another experiment deals with PC-3 cells. Put plainly: Inhibition of proliferation: CyQuant PC-3. The class given is cell-based. To be noted: 72 h; PC-3 human prostate carcinoma cells, incubated with compounds for 3 days, CyQuant NF DNA dye. As for the experimental part:
• GFP-4E-BP1 substrate; Invitrogen order no. PV4759 • Lanthascreen Tb-anti-p4E-BP1 (pThr46) Antibody Kit; Invitrogen order no. PV4758 • FRAP1 (mTOR) kinase; Invitrogen order no. […] Preparation of Reagents: Note: Thaw and keep mTOR, the substrate, ATP, and the antibody on ice prior to making working dilutions. Working dilutions of these components can be kept at room temperature for short periods of time the day of use. 1. Add 2 ml of 5× Assay Buffer to 8 ml water to prepare 10 ml of 1× Assay Buffer. Note: The concentration of 1× Assay Buffer is 50 mM HEPES pH 7.5, 0.01% Polysorbate 20, 1 mM EGTA, and 10 mM MnCl2. 2. Prepare Antibody/EDTA Solution by first adding 2.75 n1 of Tb-anti p4E-BP1 Antibody to 2397 n1 of LanthaScreen™ TR-FRET Dilution Buffer. Then, add 100 n1 of 0.5 M EDTA. 3. Prepare 4× Substrate/Enzyme Solution by first adding 72 n1 of GFP-4E-BP1 (22 nM) to 926 n1 of 1× Assay Buffer. Then, add 1.6 n1 of mTOR (0.45 mg/mL). 4. Prepare ATP Solution by adding 3.2 n1 of 10 mM ATP to 1997 n1 of 1× Assay Buffer. Serial Dilution of Inhibitors (16 Point Curve): Note: It is recommended that inhibitors be serially diluted in DMSO, then diluted to a 4× working concentration with 1× Assay Buffer. The below procedure describes dilution of compounds in a 96-well format prior to transfer to a 384-well format for kinase assays. This procedure calls for dilution of the compounds in 2 adjacent columns of a 96-well plate, which upon transfer to a single column of a 384-well plate with an 8-channel pipette will align the samples in order of concentration. 1. Dispense 40 n1 of DMSO to two adjacent columns of a 96 well plate per compound (e.g. columns 1 and 2). 2. Add 10 n1 of inhibitor stock (10 mM) to the first well of the first column (A1) and mix. 3. Remove 10 n1 from A1 and transfer to the adjacent well in the next column (B1) and mix. 4. Remove 10 n1 from B1 and transfer to the next well in the first column (B2) and mix. 5. Repeat this dilution pattern through well H1 and leave the last well (H2) as DMSO only. 6. Remove 4 n1 of diluted compounds and add to 96 n1 of 1× Assay Buffer in a 96-well plate making 4× compound dilutions. Kinase Reaction: 1. Add 2.5 μl of 4× compound dilutions from the first column of the 96-well plate to every other well of column 1 of a 384-well plate with an 8-channel pipette. Repeat for columns 2 and 3. 2. Add 2.5 n1 of 4× compound dilutions from the second column of the 96-well plate to the empty wells of column 1 of the 384-well plate with an 8-channel pipette. Repeat for columns 2 and 3. Note: This procedure aligns the compound dilutions in order of concentration. 3. Add 2.5 n1 of 4× Enzyme/Substrate Solution to all columns 1-6. 4. Preincubate for 30 min. at RT (shaker). 5. Add 5 n1 of ATP Solution to all wells to start reactions. 6. Shake the assay plate on a plate shaker for 30 seconds. 7. Incubate the assay plate for one hour at room temperature (20-25° C.). Stop Step and Fluorescence Detection: 1. Add 10 n1 of Antibody/EDTA Solution to each well in columns 1-9. 2. Shake the assay plate on a plate shaker for 30 seconds. 3. Incubate the assay plate for one hour at room temperature (20-25° C.). 4. Measure the GFP (FRET) and terbium (reference) emission signals on a fluorescence plate reader (e.g. Perkin Elmer Envision). Data Analysis: 1. Calculate the emission ratio for each sample by dividing the GFP (FRET) signal by the terbium (reference) signal. 2. Plot the concentration of each compound versus the emission ratio. Determine the concentration of compound required to reach 50% of the maximum signal (IC50). Determination of IC50 values can be obtained by curve fitting (sigmoidal dose response, variable slope) using Prism software from GraphPad). Inhibition of Proliferation: CyQuant PC-3 Description:
The CyQuant NF assay is based on measurement of cellular DNA content via fluorescent dye binding. Because cellular DNA content is highly regulated, it is closely proportional to cell number. […]
For `CCNc1ccc(-c2nn(C(C)C)c3c2CCCc2nc(NC(C)=O)sc2-3)cn1` [Example B-01, N-[3-(6-Ethylamino-pyridin-3-yl)-1-isopropyl-1,4,5,6-tetrahydro-9-thia-1,2,7-triaza-cyclopenta[e]azulen-8-yl]-acetamide], the concentration giving a half-maximal response (EC50) was found to be 308 nM.
Turning to `CNc1ccc(-c2nn(CCOC)c3c2CCCc2nc(NC(C)=O)sc2-3)cn1` [Example B-03, N-[1-(2-Methoxy-ethyl)-3-(6-methylamino-pyridin-3-yl)-1,4,5,6-tetrahydro-9-thia-1,2,7-triaza-cyclopenta[e]azulen-8-yl]-acetamide], the half-maximal effective concentration (EC50) stood at 263 nM.
